According to patent US8952024B2, “Herbicidal pyrimidone derivatives” (E I du Pont de Nemours and Company, priority 2009, dated 2015):

Legend:
Format in all cases: in vivo
[1] = system: corn (Zea mays); test: Test A pre-/postemergence plant response
Outline: (§1)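 Visual injury rating on a 0–100 scale (0 = no effect, 100 = complete control) was made versus untreated controls after about ten days in the greenhouse. Compounds, formulated in a non-phytotoxic solvent mix containing surfactant, were sprayed preemergence onto loam/sand soil and postemergence onto one- to two-leaf plants.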

[2] = system: wheat (Triticum aestivum); test: Test A pre-/postemergence plant response
Outline: as §1

[3] = system: velvetleaf (Abutilon theophrasti); test: Test A pre-/postemergence plant response
Outline: as §1

[4] = system: giant foxtail (Setaria faberii); test: Test A pre-/postemergence plant response
Outline: as §1

[5] = system: large crabgrass (Digitaria sanguinalis); test: Test A pre-/postemergence plant response
Outline: as §1

[6] = system: morningglory (Ipomoea spp.); test: Test A pre-/postemergence plant response
Outline: as §1

[7] = system: pigweed (Amaranthus retroflexus); test: Test A pre-/postemergence plant response
Outline: as §1

[8] = system: barnyardgrass (Echinochloa crus-galli); test: Test A pre-/postemergence plant response
Outline: as §1

[9] = system: morningglory (Ipomoea coccinea); test: Test B pre-/postemergence plant response; conditions: for Morningglory plant response rating: 0 to 100 scale
Outline: (§2)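 Visually scored on a 0 to 100 scale after 13 to 15 days in greenhouse versus controls. Treatments were preemergence on seeded loam/sand soil and postemergence on 1- to 4-leaf plants.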

[10] = system: wheat (Triticum aestivum); test: Test B pre-/postemergence plant response; conditions: for Wheat plant response rating: 0 to 100 scale
Outline: as §2

[11] = system: cocklebur (Xanthium strumarium); test: Test B pre-/postemergence plant response; conditions: for Cocklebur plant response rating: 0 to 100 scale
Outline: as §2

[12] = system: soybean (Glycine max); test: Test B pre-/postemergence plant response; conditions: for Soybean plant response rating: 0 to 100 scale
Outline: as §2

[13] = Postemergence, 125 g ai/ha, 0 to 100 scale where 0 is no effect and 100 is complete control
[14] = Postemergence, 500 g ai/ha, visual injury, 0 to 100 scale (0 no effect, 100 complete control), approx. ten days
[15] = Preemergence, 125 g ai/ha, 0 to 100 scale, 0 = no effect, 100 = complete control
[16] = Preemergence, 500 g ai/ha, 0 to 100 scale, 0 = no effect, 100 = complete control
[17] = Postemergence, 31 g ai/ha, 0 to 100 scale (0 no effect, 100 complete control)
[18] = Postemergence, 125 g ai/ha, scale 0 to 100 (0 no effect, 100 complete control)
[19] = Postemergence, 250 g ai/ha, scale 0 to 100 (0 no effect, 100 complete control), 13 to 15 days
[20] = Postemergence, 62 g ai/ha, scale 0 to 100 (0 no effect, 100 complete control)
[21] = Preemergence, 31 g ai/ha, scale 0 to 100 (0 no effect, 100 complete control)
[22] = Preemergence, 62 g ai/ha, scale 0 to 100, 0 no effect, 100 complete control
[23] = Preemergence, 125 g ai/ha, scale 0 to 100, 0 no effect, 100 complete control
[24] = Postemergence, 1000 g ai/ha, 0 to 100 scale, 0 = no effect, 100 = complete control, approx. ten days
[25] = Preemergence, 1000 g ai/ha, visual injury, 0 to 100 scale (0 no effect, 100 complete control), approx. ten days

CCCCn1c(C2CC2)ncc(C(=O)C2=C(O)CCCC2=O)c1=O [Compound 193]
30: Plant response rating, Wheat [10, 17]
10: Plant response rating, Corn [1, 13] | Plant response rating, Wheat [10, 23]
35: Plant response rating, Wheat [10, 20]
70: Wheat plant response rating [2, 14]
60: Plant response rating, Morningglory [9, 20] | Plant response rating, Wheat [10, 19] | Plant response rating, Soybean [12, 22] | Plant response rating, Soybean [12, 23]
95: Plant response rating, Morningglory [9, 23] | Morningglory plant response rating ([9]; Preemergence, 250 g ai/ha) | Plant response rating, Cocklebur [11, 17] | Plant response rating, Cocklebur [11, 20] | Cocklebur plant response rating ([11]; Preemergence, 250 g ai/ha)
40: Corn plant response rating [1, 14] | Plant response rating, Wheat [2, 13] | Plant response rating, Morningglory [9, 17] | Plant response rating, Soybean [12, 21]
25: Wheat plant response rating ([10]; Preemergence, 250 g ai/ha)
80: Plant response rating, Morningglory [6, 15] | Plant response rating, Barnyardgrass [8, 15] | Plant response rating, Soybean [12, 17] | Soybean plant response rating ([12]; Preemergence, 250 g ai/ha)
100: Plant response rating, Velvetleaf [3, 13] | Velvetleaf plant response rating [3, 14] | Plant response rating, Velvetleaf [3, 15] | Plant response rating, Velvetleaf [3, 16] | Foxtail, Giant plant response rating [4, 14] | Plant response rating, Crabgrass, Large [5, 13] | Crabgrass, Large plant response rating [5, 14] | Plant response rating, Crabgrass, Large [5, 16] | Plant response rating, Morningglory [6, 13] | Morningglory plant response rating [6, 14] | Plant response rating, Pigweed [7, 13] | Pigweed plant response rating [7, 14] | Plant response rating, Pigweed [7, 15] | Plant response rating, Pigweed [7, 16] | Barnyardgrass plant response rating [8, 14] | Plant response rating, Cocklebur [11, 18] | Plant response rating, Cocklebur [11, 19] | Plant response rating, Soybean [12, 19]
75: Plant response rating, Morningglory [9, 21] | Plant response rating, Cocklebur [11, 22]
90: Plant response rating, Foxtail, Giant [4, 13] | Plant response rating, Foxtail, Giant [4, 15] | Plant response rating, Foxtail, Giant [4, 16] | Plant response rating, Crabgrass, Large [5, 15] | Plant response rating, Morningglory [6, 16] | Plant response rating, Barnyardgrass [8, 13] | Plant response rating, Barnyardgrass [8, 16] | Plant response rating, Morningglory [9, 19] | Plant response rating, Morningglory [9, 22]
65: Plant response rating, Morningglory [9, 18]
98: Plant response rating, Soybean [12, 20]
50: Plant response rating, Wheat [2, 16]
0: Plant response rating, Corn [1, 15] | Plant response rating, Corn [1, 16] | Plant response rating, Wheat [2, 15] | Plant response rating, Wheat [10, 21] | Plant response rating, Wheat [10, 22]

CCCc1ncc(C(=O)C2=C(O)CCCC2=O)c(=O)n1-c1ccccc1 [Compound 217]
0: Plant response rating, Corn [1, 25] | Plant response rating, Morningglory [9, 21] | Plant response rating, Morningglory [9, 22] | Plant response rating, Morningglory [9, 23] | Morningglory plant response rating ([9]; Preemergence, 250 g ai/ha) | Plant response rating, Wheat [10, 21] | Plant response rating, Wheat [10, 22] | Plant response rating, Wheat [10, 23] | Wheat plant response rating ([10]; Preemergence, 250 g ai/ha) | Plant response rating, Soybean [12, 21] | Plant response rating, Soybean [12, 22] | Plant response rating, Soybean [12, 23] | Soybean plant response rating ([12]; Preemergence, 250 g ai/ha)
30: Plant response rating, Wheat [2, 25] | Plant response rating, Wheat [10, 17]
40: Plant response rating, Corn [1, 24] | Plant response rating, Wheat [2, 24]
75: Plant response rating, Morningglory [9, 20] | Plant response rating, Soybean [12, 17]
98: Plant response rating, Cocklebur [11, 18] | Plant response rating, Cocklebur [11, 20] | Plant response rating, Soybean [12, 19]
90: Plant response rating, Barnyardgrass [8, 24]
45: Plant response rating, Wheat [10, 20]
100: Plant response rating, Velvetleaf [3, 24] | Plant response rating, Velvetleaf [3, 25] | Plant response rating, Crabgrass, Large [5, 24] | Plant response rating, Crabgrass, Large [5, 25] | Plant response rating, Morningglory [6, 24] | Plant response rating, Pigweed [7, 24] | Plant response rating, Pigweed [7, 25] | Plant response rating, Cocklebur [11, 19]
80: Plant response rating, Foxtail, Giant [4, 24] | Plant response rating, Foxtail, Giant [4, 25] | Plant response rating, Barnyardgrass [8, 25] | Plant response rating, Morningglory [9, 18] | Plant response rating, Morningglory [9, 19] | Plant response rating, Cocklebur [11, 17]
50: Plant response rating, Wheat [10, 19]
70: Plant response rating, Morningglory [6, 25] | Plant response rating, Morningglory [9, 17]
85: Plant response rating, Cocklebur [11, 23] | Cocklebur plant response rating ([11]; Preemergence, 250 g ai/ha) | Plant response rating, Soybean [12, 20]

CCc1cccc(-n2c(-c3ccccc3)ncc(C(=O)C3=C(O)CCCC3=O)c2=O)c1 [Compound 220]
70: Plant response rating, Morningglory [6, 16]
90: Crabgrass, Large plant response rating [5, 14] | Plant response rating, Crabgrass, Large [5, 16] | Plant response rating, Barnyardgrass [8, 13] | Barnyardgrass plant response rating [8, 14] | Plant response rating, Barnyardgrass [8, 16] | Morningglory plant response rating ([9]; Preemergence, 250 g ai/ha)
85: Plant response rating, Soybean [12, 20]
5: Wheat plant response rating ([10]; Preemergence, 250 g ai/ha)
60: Foxtail, Giant plant response rating [4, 14]
98: Plant response rating, Morningglory [9, 18]
20: Wheat plant response rating [2, 14] | Plant response rating, Foxtail, Giant [4, 13] | Plant response rating, Crabgrass, Large [5, 15]
10: Plant response rating, Corn [1, 16] | Plant response rating, Barnyardgrass [8, 15]
15: Plant response rating, Wheat [10, 19]
65: Plant response rating, Morningglory [9, 17] | Plant response rating, Morningglory [9, 20]
30: Corn plant response rating [1, 14]
50: Plant response rating, Crabgrass, Large [5, 13]
0: Plant response rating, Corn [1, 13] | Plant response rating, Corn [1, 15] | Plant response rating, Wheat [2, 13] | Plant response rating, Wheat [2, 15] | Plant response rating, Wheat [2, 16] | Plant response rating, Foxtail, Giant [4, 15] | Plant response rating, Morningglory [6, 15] | Plant response rating, Morningglory [9, 21] | Plant response rating, Morningglory [9, 22] | Plant response rating, Morningglory [9, 23] | Plant response rating, Wheat [10, 17] | Plant response rating, Wheat [10, 20] | Plant response rating, Wheat [10, 21] | Plant response rating, Wheat [10, 22] | Plant response rating, Wheat [10, 23] | Plant response rating, Cocklebur [11, 21] | Plant response rating, Cocklebur [11, 22] | Cocklebur plant response rating ([11]; Preemergence, 250 g ai/ha) | Plant response rating, Soybean [12, 22] | Plant response rating, Soybean [12, 23]
100: Plant response rating, Velvetleaf [3, 13] | Velvetleaf plant response rating [3, 14] | Plant response rating, Velvetleaf [3, 16] | Plant response rating, Morningglory [6, 13] | Morningglory plant response rating [6, 14] | Plant response rating, Pigweed [7, 13] | Pigweed plant response rating [7, 14] | Plant response rating, Pigweed [7, 16] | Plant response rating, Morningglory [9, 19] | Plant response rating, Soybean [12, 19]
80: Plant response rating, Pigweed [7, 15] | Plant response rating, Soybean [12, 17]
75: Soybean plant response rating ([12]; Preemergence, 250 g ai/ha)
40: Plant response rating, Velvetleaf [3, 15] | Plant response rating, Foxtail, Giant [4, 16]
